Results: ChEMBL document CHEMBL5696441 (Nat Chem Biol, 2011)

Assays:
[1] = molecular target: Insulin-like growth factor 1 receptor (Homo sapiens) (UniProt P08069); test: Inhibition of IGF1R (unknown origin) assessed as remaining activity at 1 uM by Kinome scan method relative to control
[2] = molecular target: Casein kinase I isoform epsilon (Homo sapiens) (UniProt P49674); test: Inhibition of CSNK1E (unknown origin) assessed as remaining activity at 1 uM by Kinome scan method relative to control
[3] = test system: Epidermal growth factor receptor (Homo sapiens), P00533 [L858R]; test: Inhibition of EGFR L858R mutant (unknown origin) assessed as remaining activity at 1 uM by Kinome scan method relative to control
[4] = molecular target: MAP/microtubule affinity-regulating kinase 3 (Homo sapiens) (UniProt P27448); test: Inhibition of human MARK3 assessed as residual activity at 1 uM using RBER-CHKtide as substrate in presence of 33P-ATP by ProQinase assay relative to control
[5] = molecular target: Fibroblast growth factor receptor 4 (Homo sapiens) (UniProt P22455); test: Inhibition of human FGFR4 assessed as residual activity at 1 uM using polyEy as substrate in presence of 33P-ATP by ProQinase assay relative to control
[6] = molecular target: Serine/threonine-protein kinase WNK2 (Homo sapiens) (UniProt Q9Y3S1); test: Inhibition of human WNK2 assessed as residual activity at 1 uM using RBER-CHKtide as substrate in presence of 33P-ATP by ProQinase assay relative to control
[7] = molecular target: Protein kinase C beta type (Homo sapiens) (UniProt P05771); test: Inhibition of human PKCbeta2 assessed as residual activity at 1 uM using 3xChocktide-PKC as substrate in presence of 33P-ATP by ProQinase assay relative to control
[8] = molecular target: Serine/threonine-protein kinase TNNI3K (Homo sapiens) (UniProt Q59H18); test: Inhibition of TNNI3K (unknown origin) assessed as remaining activity at 1 uM by Kinome scan method relative to control
[9] = molecular target: Mitogen-activated protein kinase kinase kinase 11 (Homo sapiens) (UniProt Q16584); test: Inhibition of human MAP3K11 assessed as residual activity at 1 uM using MBP as substrate in presence of 33P-ATP by ProQinase assay relative to control
[10] = molecular target: Ribosomal protein S6 kinase alpha-4 (Homo sapiens) (UniProt O75676); test: Inhibition of human RPS6KA4 assessed as residual activity at 1 uM using RBER-CHKtide as substrate in presence of 33P-ATP by ProQinase assay relative to control
[11] = molecular target: Serine/threonine-protein kinase Nek4 (Homo sapiens) (UniProt P51957); test: Inhibition of human NEK4 assessed as residual activity at 1 uM using MBP as substrate in presence of 33P-ATP by ProQinase assay relative to control
[12] = molecular target: Wee1-like protein kinase 2 (Homo sapiens) (UniProt P0C1S8); test: Inhibition of WEE2 (unknown origin) assessed as remaining activity at 1 uM by Kinome scan method relative to control
Sequence of Wee1-like protein kinase 2 (Homo sapiens) (P0C1S8 whole entry, looked up): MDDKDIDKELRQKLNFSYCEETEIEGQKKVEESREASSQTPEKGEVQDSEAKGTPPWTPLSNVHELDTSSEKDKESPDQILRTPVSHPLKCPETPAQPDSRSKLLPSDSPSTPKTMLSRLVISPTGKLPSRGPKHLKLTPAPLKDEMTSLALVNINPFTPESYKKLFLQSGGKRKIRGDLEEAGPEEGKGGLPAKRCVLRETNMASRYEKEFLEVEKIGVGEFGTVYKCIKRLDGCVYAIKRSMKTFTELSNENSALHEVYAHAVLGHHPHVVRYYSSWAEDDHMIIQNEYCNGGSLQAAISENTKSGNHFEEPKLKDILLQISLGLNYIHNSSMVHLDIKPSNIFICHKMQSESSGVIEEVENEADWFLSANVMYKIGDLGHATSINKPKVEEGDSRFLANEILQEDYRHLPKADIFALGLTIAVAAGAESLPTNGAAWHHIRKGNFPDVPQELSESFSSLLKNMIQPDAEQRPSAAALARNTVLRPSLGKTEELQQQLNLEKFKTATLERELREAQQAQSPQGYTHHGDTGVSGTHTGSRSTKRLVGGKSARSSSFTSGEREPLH

[13] = molecular target: Atypical kinase COQ8B, mitochondrial (Homo sapiens) (UniProt Q96D53); test: Inhibition of ADCK4 (unknown origin) assessed as remaining activity at 1 uM by Kinome scan method relative to control
Sequence of Atypical kinase COQ8B, mitochondrial (Homo sapiens) (Q96D53 whole entry): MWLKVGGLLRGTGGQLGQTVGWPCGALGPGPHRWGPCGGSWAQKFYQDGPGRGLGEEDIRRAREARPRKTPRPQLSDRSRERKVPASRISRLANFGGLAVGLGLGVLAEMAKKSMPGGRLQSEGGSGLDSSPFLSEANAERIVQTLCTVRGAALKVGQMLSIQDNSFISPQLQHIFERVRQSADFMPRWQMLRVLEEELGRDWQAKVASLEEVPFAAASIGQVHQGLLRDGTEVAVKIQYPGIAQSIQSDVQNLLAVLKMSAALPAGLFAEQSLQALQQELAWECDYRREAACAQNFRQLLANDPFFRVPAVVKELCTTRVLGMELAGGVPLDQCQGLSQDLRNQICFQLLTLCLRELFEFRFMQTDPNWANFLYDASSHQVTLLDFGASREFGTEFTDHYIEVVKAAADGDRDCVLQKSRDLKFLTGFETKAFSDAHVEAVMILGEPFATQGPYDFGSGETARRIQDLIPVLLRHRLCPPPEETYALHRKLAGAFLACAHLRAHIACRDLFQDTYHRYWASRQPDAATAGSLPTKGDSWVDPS

[14] = molecular target: Serine/threonine-protein kinase PAK 1 (Homo sapiens) (UniProt Q13153); test: Inhibition of human PAK1 assessed as residual activity at 1 uM using bio-4xCHKT as substrate in presence of 33P-ATP by ProQinase assay relative to control
[15] = molecular target: SRSF protein kinase 1 (Homo sapiens) (UniProt Q96SB4); test: Inhibition of SRPK1 (unknown origin) assessed as remaining activity at 1 uM by Kinome scan method relative to control
[16] = molecular target: Protein kinase C iota type (Homo sapiens) (UniProt P41743); test: Inhibition of human PKCiota assessed as residual activity at 1 uM using 3xChocktide-PKC(19-31) as substrate in presence of 33P-ATP by ProQinase assay relative to control
Sequence of Protein kinase C iota type (Homo sapiens) (P41743 whole entry): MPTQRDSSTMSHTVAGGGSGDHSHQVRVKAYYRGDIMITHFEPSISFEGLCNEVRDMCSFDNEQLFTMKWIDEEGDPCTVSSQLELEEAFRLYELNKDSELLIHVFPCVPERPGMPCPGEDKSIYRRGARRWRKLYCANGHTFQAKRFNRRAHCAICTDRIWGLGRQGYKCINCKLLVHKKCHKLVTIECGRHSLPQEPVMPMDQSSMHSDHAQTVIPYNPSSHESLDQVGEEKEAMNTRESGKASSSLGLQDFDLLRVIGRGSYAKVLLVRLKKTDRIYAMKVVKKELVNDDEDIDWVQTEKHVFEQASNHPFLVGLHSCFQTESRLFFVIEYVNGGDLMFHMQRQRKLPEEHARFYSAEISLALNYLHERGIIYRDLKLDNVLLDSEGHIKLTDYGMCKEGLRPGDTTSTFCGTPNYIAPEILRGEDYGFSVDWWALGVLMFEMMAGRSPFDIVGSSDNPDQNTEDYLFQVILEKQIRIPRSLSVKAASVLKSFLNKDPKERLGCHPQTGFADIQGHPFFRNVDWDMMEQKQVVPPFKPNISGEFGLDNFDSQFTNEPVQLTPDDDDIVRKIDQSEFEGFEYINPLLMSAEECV

[17] = molecular target: Serine/threonine-protein kinase B-raf (Homo sapiens) (UniProt P15056); test: Inhibition of human BRAF assessed as residual activity at 1 uM using MEK1-K97M as substrate in presence of 33P-ATP by ProQinase assay relative to control
Sequence of Serine/threonine-protein kinase B-raf (Homo sapiens) (P15056 whole entry): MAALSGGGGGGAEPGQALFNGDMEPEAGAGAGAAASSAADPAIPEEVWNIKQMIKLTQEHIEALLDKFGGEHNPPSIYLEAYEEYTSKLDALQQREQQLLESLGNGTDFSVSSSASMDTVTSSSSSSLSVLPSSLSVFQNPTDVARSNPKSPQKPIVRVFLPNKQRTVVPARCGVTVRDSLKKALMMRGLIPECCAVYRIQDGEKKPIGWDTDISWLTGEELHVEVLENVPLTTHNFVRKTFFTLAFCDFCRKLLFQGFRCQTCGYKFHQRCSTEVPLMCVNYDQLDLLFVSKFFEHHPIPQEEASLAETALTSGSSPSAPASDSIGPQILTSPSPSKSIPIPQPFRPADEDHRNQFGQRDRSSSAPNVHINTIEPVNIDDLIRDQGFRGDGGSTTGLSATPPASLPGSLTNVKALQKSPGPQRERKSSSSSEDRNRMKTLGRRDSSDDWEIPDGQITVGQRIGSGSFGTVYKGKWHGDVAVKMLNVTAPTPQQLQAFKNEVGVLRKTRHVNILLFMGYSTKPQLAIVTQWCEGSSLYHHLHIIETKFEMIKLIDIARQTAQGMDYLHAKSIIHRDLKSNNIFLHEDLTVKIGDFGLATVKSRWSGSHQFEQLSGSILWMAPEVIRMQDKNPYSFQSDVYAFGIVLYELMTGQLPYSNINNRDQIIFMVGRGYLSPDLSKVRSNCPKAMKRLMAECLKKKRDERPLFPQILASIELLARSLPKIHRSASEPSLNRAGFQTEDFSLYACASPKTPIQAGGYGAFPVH

[18] = molecular target: Mitogen-activated protein kinase 13 (Homo sapiens) (UniProt O15264); test: Inhibition of human p38delta assessed as residual activity at 1 uM using RBER-CHKtide as substrate in presence of 33P-ATP by ProQinase assay relative to control
[19] = molecular target: Cyclin-dependent kinase 5/CDK5 activator 1 (Homo sapiens) (UniProt Q00535+Q15078); test: Inhibition of human CDK5/p35NCK assessed as residual activity at 1 uM using RBER-CHKtide as substrate in presence of 33P-ATP by ProQinase assay relative to control; type: protein-complex assay
Sequence of Cyclin-dependent kinase 5/CDK5 activator 1 (Homo sapiens) (Q00535 whole entry): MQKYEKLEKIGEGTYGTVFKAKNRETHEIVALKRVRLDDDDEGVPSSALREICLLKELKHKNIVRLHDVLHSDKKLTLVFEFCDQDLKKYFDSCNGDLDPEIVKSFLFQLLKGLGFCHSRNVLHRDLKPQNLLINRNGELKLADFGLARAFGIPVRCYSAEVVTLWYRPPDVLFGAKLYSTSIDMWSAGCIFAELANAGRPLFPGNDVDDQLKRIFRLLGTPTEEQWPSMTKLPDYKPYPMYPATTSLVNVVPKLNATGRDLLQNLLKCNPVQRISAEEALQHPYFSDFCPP
Sequence of Cyclin-dependent kinase 5/CDK5 activator 1 (Homo sapiens) (Q15078 99-307 partner limits assumed): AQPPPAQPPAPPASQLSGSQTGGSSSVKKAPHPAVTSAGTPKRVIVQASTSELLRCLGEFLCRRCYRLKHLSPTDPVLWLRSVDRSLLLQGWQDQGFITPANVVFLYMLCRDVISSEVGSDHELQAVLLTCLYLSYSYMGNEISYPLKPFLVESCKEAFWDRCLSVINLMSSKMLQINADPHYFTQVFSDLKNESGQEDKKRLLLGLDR

[20] = molecular target: Tyrosine-protein kinase ZAP-70 (Homo sapiens) (UniProt P43403); test: Inhibition of ZAP70 (unknown origin) assessed as remaining activity at 1 uM by Kinome scan method relative to control
[21] = molecular target: Mitogen-activated protein kinase kinase kinase 2 (Homo sapiens) (UniProt Q9Y2U5); test: Inhibition of human MEKK2 assessed as residual activity at 1 uM using casein as substrate in presence of 33P-ATP by ProQinase assay relative to control
Sequence of Mitogen-activated protein kinase kinase kinase 2 (Homo sapiens) (Q9Y2U5 whole entry): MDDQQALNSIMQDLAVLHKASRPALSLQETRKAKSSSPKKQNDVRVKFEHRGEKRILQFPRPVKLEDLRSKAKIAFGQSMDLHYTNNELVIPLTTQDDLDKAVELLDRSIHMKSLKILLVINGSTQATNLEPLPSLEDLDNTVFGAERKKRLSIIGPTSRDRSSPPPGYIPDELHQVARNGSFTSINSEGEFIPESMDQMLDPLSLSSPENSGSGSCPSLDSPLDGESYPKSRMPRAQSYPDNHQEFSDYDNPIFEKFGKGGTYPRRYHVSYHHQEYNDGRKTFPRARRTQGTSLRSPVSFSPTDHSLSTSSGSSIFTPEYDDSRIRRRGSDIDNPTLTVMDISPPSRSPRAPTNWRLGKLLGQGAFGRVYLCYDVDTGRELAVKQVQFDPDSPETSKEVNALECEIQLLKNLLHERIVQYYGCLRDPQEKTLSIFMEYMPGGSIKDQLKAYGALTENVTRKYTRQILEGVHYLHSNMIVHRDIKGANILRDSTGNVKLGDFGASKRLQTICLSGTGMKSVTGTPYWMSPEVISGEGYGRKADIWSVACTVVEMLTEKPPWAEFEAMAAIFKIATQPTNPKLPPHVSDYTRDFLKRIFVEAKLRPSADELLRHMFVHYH

[22] = molecular target: Ribosomal protein S6 kinase alpha-1 (Homo sapiens) (UniProt Q15418); test: Inhibition of human RPS6KA1 assessed as residual activity at 1 uM using RBER-CHKtide as substrate in presence of 33P-ATP by ProQinase assay relative to control
[23] = molecular target: Inhibitor of nuclear factor kappa-B kinase subunit beta (Homo sapiens) (UniProt O14920); test: Inhibition of IKK-beta (unknown origin) assessed as remaining activity at 1 uM by Kinome scan method relative to control
[24] = molecular target: CDK9/cyclin T1 (Homo sapiens) (UniProt O60563+P50750); test: Inhibition of human CDK9/CyclinT1 assessed as residual activity at 1 uM using RBER-CHKtide as substrate in presence of 33P-ATP by ProQinase assay relative to control; type: protein-complex assay
[25] = molecular target: Ephrin type-A receptor 4 (Homo sapiens) (UniProt P54764); test: Inhibition of EPHA4 (unknown origin) assessed as remaining activity at 1 uM by Kinome scan method relative to control
[26] = molecular target: Mitogen-activated protein kinase 10 (Homo sapiens) (UniProt P53779); test: Inhibition of human JNK3 assessed as residual activity at 1 uM using ATF2 as substrate in presence of 33P-ATP by ProQinase assay relative to control
[27] = Anti-inflammatory activity against human derived medium respond PBMC cells assessed as inhibition in stimulated TNF-alpha cytokine release incubated for 2 hrs in the presence of LPS/SEB/aCD28 by Luminex based sandwich immunoassay; type: functional, cell-based
[28] = molecular target: Calcium/calmodulin-dependent protein kinase type II subunit delta (Homo sapiens) (UniProt Q13557); test: Inhibition of CAMK2D (unknown origin) assessed as remaining activity at 1 uM by Kinome scan method relative to control

Sequence of Insulin-like growth factor 1 receptor (Homo sapiens) (P08069 31-736 limits assumed): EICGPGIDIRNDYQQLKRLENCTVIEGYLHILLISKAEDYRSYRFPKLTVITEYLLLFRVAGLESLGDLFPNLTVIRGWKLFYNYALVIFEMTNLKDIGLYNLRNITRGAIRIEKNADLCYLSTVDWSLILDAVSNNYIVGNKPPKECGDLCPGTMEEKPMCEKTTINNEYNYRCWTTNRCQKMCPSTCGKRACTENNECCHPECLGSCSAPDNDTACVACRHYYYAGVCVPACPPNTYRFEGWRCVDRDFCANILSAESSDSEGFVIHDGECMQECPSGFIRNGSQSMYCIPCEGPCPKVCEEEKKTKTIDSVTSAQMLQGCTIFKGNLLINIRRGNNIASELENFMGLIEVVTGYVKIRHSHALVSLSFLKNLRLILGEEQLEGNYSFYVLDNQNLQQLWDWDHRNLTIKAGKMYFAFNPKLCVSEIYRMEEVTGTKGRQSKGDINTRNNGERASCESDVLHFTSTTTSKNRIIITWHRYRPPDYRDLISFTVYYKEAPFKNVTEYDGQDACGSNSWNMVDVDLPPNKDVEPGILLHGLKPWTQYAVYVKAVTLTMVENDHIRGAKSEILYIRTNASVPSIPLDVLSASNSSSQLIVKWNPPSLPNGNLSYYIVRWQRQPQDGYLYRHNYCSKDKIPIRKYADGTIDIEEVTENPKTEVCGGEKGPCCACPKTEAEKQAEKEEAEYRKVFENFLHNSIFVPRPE
Sequence of Insulin-like growth factor 1 receptor (Homo sapiens) (P08069 741-1367 limits assumed): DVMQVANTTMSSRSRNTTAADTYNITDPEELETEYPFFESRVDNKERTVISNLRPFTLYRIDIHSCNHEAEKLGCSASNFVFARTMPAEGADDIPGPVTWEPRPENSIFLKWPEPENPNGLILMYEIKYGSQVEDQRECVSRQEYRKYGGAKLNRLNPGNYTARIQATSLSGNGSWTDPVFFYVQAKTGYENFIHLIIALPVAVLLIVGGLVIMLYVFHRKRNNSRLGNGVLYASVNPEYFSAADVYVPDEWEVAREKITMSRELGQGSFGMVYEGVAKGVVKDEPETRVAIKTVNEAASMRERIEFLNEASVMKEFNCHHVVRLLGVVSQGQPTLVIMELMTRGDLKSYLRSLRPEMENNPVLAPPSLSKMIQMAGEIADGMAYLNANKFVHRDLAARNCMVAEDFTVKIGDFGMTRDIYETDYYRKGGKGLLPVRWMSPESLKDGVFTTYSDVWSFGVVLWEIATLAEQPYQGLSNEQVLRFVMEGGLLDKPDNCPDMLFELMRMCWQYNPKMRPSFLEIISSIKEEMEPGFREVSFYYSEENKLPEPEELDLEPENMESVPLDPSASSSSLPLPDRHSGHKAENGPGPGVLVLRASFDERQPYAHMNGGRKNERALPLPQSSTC

Q: Which Activity [1] does the source give for `O=C1c2ccc(Nc3ccc(F)cc3F)cc2CCc2ccc(OC[C@H](O)CO)cc21` [Skepinone-L] here?
A: 91%

Q: What about the Activity [2] of the same molecule?
A: 100%

Q: What about the Activity [3] of the same molecule?
A: 93%

Q: What about the Activity [4] of the same molecule?
A: 95%

Q: And the Activity [5]?
A: 103%

Q: And the Activity [6]?
A: 95%

Q: What about the Activity [7] of the same molecule?
A: 97%

Q: And the Activity [8]?
A: 90%

Q: What about the Activity [9] of the same molecule?
A: 114%

Q: What about the Activity [10] of the same molecule?
A: 107%

Q: And the Activity [11]?
A: 99%

Q: And the Activity [12]?
A: 90%

Q: What about the Activity [13] of the same molecule?
A: 100%

Q: What about the Activity [14] of the same molecule?
A: 100%

Q: What about the Activity [15] of the same molecule?
A: 100%

Q: What about the Activity [16] of the same molecule?
A: 91%

Q: And the Activity [17]?
A: 112%

Q: And the Activity [18]?
A: 80%

Q: What about the Activity [19] of the same molecule?
A: 90%

Q: And the Activity [20]?
A: 100%

Q: What about the Activity [21] of the same molecule?
A: 89%

Q: What about the Activity [22] of the same molecule?
A: 89%

Q: And the Activity [23]?
A: 100%

Q: And the Activity [24]?
A: 103%

Q: And the Activity [25]?
A: 100%

Q: What about the Activity [26] of the same molecule?
A: 33%

Q: What about the IC50 [27] of the same molecule?
A: 0.86 µM

Q: What about the Activity [28] of the same molecule?
A: 100%
